Measurements taken from article PMC12422966, “ACLY inhibition promotes tumour immunity and suppresses liver cancer” (Nature, 2025).

Target: T1, SLC27A2 (FATP2, ACSVL1) (Homo sapiens, UniProt O14975)
T1 construct: SLC27A2 (NM_003645, human tagged ORF clone) expressed in HEK293 cells
Test: LC–MS/MS detection of EVT0185-CoA in HEK293 cells overexpressing SLC27A2, […] EVT0185
Assay type: cell-based

## CC(C)(CCCCc1ccc(CCCCC(C)(C)C(=O)O)cc1)C(=O)O [EVT0185, 6-[4-(5-carboxy-5-methyl-hexyl)-phenyl]−2,2-dimethylhexanoic acid]
  LC-MS/MS detection of EVT0185-CoA in HEK293 cells overexpressing SLC27A2, 30 μM: Incubation of HEK293 cells with EVT0185 followed by mass spectrometry analysis indicated that only cells expressing SLC27A2 generated the CoA thioester
